Assay results from patent US11649430B2 (priority 2018, dated 2023).
Entries after “also recorded” stand apart in the source; their conditions may differ.

Columns and labels:
A. fumigatus = experiment: Germination assay with purified imizoquins, A. fumigatus; type: cell-based, Aspergillus fumigatus
Description: (§1) Germination Assay: Each strain was grown in triplicate in 2 mL of liquid GMM inoculated with 1×10^5 spores mL^−1 in a well of a sterile Costar® 12-well plate (Corning) and incubated at 30° C. in OKO-Lab microscopic enclosure equipped with a Nikon Eclipse Ti inverted microscope. Germinated spores were observed using a Nikon Plan Fluor 20xPh1 DLL objective and phase-contrast microscope. A spore was considered germinated when the length of the spore protrusion (emerging hyphal tip) exceeded the spore's diameter^15,33. Images were captured hourly using the Nikon NIS Elements AR software package (v. 4.13), and the germination rate was determined by counting germlings per hundred spores. The experiment was repeated three times.
(§2) Germination Assay with Purified Imizoquins. Compounds 1-2 were assessed for their effect on germination of different fungal strains. Each metabolite was dissolved in methanol at a starting concentration of 10 mg mL^−1 and stored at −80° C. Sterile Costar® 96 well plates containing 100 μL of GMM supplemented with various concentrations of purified 1-2 (0.1 mM, 0.2 mM, 0.4 mM, 0.8 mM and 1.2 mM) were inoculated at 1×10^5 spores/well. Spores treated with equivalent volumes of the carrier (methanol) served as negative controls for each experiment. The germination rate (%) was measured as above with each treatment assayed in triplicate.

A. flavus [1] = experiment: Germination ROS assay (H2O2 plus imizoquin A); type: cell-based, Aspergillus flavus; details: 0.7 mM H2O2, 0.1, 0.2, 0.4 mM compound
A. oryzae = experiment: Germination assay with purified imizoquins, A. oryzae; type: cell-based, Aspergillus oryzae
Description: as §1, §2

[2] = Antioxidant Assay (OxiSelect Total Antioxidant Capacity Assay Kit); type: biochemical; details: 0-1 mM; compared to uric acid; absorbance 490 nm (Supporting Figure S9)
Description: Antioxidant Assay: ROS quenching potential of the imizoquins was analyzed using the OxiSelect™ Total Antioxidant Capacity Assay Kit (Cell Biolabs, Inc., San Diego, Calif.) following the manufacturer's instructions. Briefly, 20 μL of diluted uric acid standards (0-1 mM) and imizoquins (0-1 mM) were combined with 180 μL of 1× reaction buffer/well in a Costar® 96 well plate. After mixing thoroughly, an initial absorbance was obtained at 490 nm using a BioTek EPOCH 2 microplate reader with Gen5 acquisition software. Then 50 μL of the 1× copper ion reagent was added into each well and the plate was incubated for 5 minutes on an orbital shaker. To terminate the reaction, 50 μL of 1× stop solution was added and the final absorbance was measured again at 490 nm.

R. solanacearum = type: cell-based, Ralstonia solanacearum; details: WT (GMI1000) strain; 0.4 mM; 24 hours
A. flavus [3] = type: cell-based, Aspergillus flavus; details: for germination rate: 0.1 mM, 0.2 mM, 0.4 mM
Penicillium expansum = experiment: Germination assay with purified imizoquins, Penicillium expansum; type: cell-based
Description: as §1, §2

A. nidulans = experiment: Germination assay with purified imizoquins, A. nidulans; type: cell-based, Aspergillus nidulans
Description: as §1, §2

SMILES | germination rate in the presence of H2O2 (A. flavus [1]; WT strain) | germination rate in the presence of H2O2 (A. flavus [1]; ΔimqK strain) | antioxidant activity (ROS quenching potential) [2] | R. solanacearum growth (OD) (R. solanacearum) | germination rate (A. flavus [3]) | germination (A. flavus [3]) | also measured
OO [H2O2, hydrogen peroxide] |  |  |  |  |  |  | spore survival (A. flavus spores): 50%
COC1=C(O)C(=O)C2=C(C1=O)[C@H]1N[C@@H](Cc3c[nH]c4ccccc34)C(=O)N1C(C(=O)N[C@@H](CC(C)CO)C(=O)O)C2 (stereo partly shown) [Imizoquin A, imizoquin A] | counteracted the germination inhibitory activity of H2O2 | counteracted the germination inhibitory activity of H2O2 | significant antioxidant activities | decreases R. solanacearum growth modestly | restores germination in the ΔimqK mutant in a dose-dependent manner; also recorded: increased germination of both ΔimqK and WT to above that of untreated OE::imqK |  | germination rate (A. fumigatus): increases the germination rate; concentration up to which the germination effect is dose-dependent (A. fumigatus; A. fumigatus): about 0.4 mM; germination rate in the presence of H2O2 (A. flavus [1]; WT strain, listed as imizoquin A): protected spores from the germination inhibitory effects of H2O2; germination rate in the presence of H2O2 (A. flavus [1]; ΔimqK strain, listed as imizoquin A): protected spores from the germination inhibitory effects of H2O2; concentration up to which the germination effect is dose-dependent (A. oryzae; A. oryzae): about 0.4 mM; germination rate (A. oryzae; A. oryzae (Supporting Figure S8)): increases the germination rate; concentration up to which the germination effect is dose-dependent (Penicillium expansum): about 0.4 mM; germination rate (Penicillium expansum): increased the germination rate; germination rate (A. nidulans): increases the germination rate; concentration up to which the germination effect is dose-dependent (A. nidulans; A. nidulans): about 0.4 mM
COC1=C(O)C(=O)C2=C(C1=O)[C@H]1N[C@@H](Cc3c[nH]c4ccccc34)C(=O)N1C(C(=O)N[C@@H](CC(CO)CO)C(=O)O)C2 (stereo partly shown) [Imizoquin B, imizoquin B] | protected spores from the germination inhibitory effects of H2O2 | protected spores from the germination inhibitory effects of H2O2 | significant antioxidant activities | decreases R. solanacearum growth modestly | restores germination in the ΔimqK mutant in a dose-dependent manner; also recorded: increased germination of both ΔimqK and WT to above that of untreated OE::imqK |  | 
COc1c(O)cc2c(c1O)CN(C(=O)[C@@H](N)Cc1c[nH]c3ccccc13)[C@H](C(=O)N[C@@H](CC(CO)CO)C(=O)O)C2 [TMC-2A, reference compound] |  |  | showed antioxidant properties |  |  | similarly accelerated germination | 
COc1c(O)cc2c(c1O)CN(C(=O)[C@@H](N)Cc1c[nH]c3ccccc13)[C@H](C(=O)N[C@@H](CC(C)CO)C(=O)O)C2 (stereo partly shown) [TMC-2B, reference compound] |  |  | showed antioxidant properties |  |  | similarly accelerated germination | 
